According to patent publication US20110184018A1, “METHOD FOR TREATING PERIPHERAL NEUROPATHIC PAIN” (LOHOCLA RESEARCH CORPORATION, priority 2005, published 2011):

How the values were obtained:
CB1 receptor [1] = biological target: T1, CB1 receptor (Homo sapiens, UniProt P21554); test: cAMP accumulation in HEK293 cells transfected with AC5, D1AR, CB1R; type: cell-based
T1 construct: expressed in transfected cells; host or cells: HEK293 cells (ATCC), calcium phosphate transfection
Experimental: HEK293 cells were obtained from American Type Culture Collection (Manassas, Va.). Cells were cultured in 225 mL flasks containing 39 mL of MEM containing 10% fetal bovine serum, penicillin (50 μg/mL), streptomycin (50 μg/mL), and neomycin (100 μg/mL). The flasks were maintained in a humidified atmosphere of 95% air and 5% CO2 at about 37° C. Transfection was performed by the method of DNA precipitation with calcium phosphate 1 day after HEK 293 cells were transferred to small flasks (75 mL) at the density of approximately 60 to 80% confluence. Plasmid DNA containing AC5 or AC7 cDNA (11.5 μg), plasmid DNA carrying the human D1A dopamine receptor cDNA (3 μg) and CB1 receptor cDNA (3 μg), and pCMS-EGFP (1 μg) were used for each small flask, which also contained 13 mL of the culture medium. The amount of DNA per flask was adjusted to a total of 26 μg using vector DNA. Transfection efficiency was routinely monitored by observing the expression of enhanced green fluorescent protein (GFP) by an epifluorescence microscope equipped with a filter set (excitation, 480/40 nm; emission, 535/50 nm) and a dichroic mirror (T89002bs; Chroma Technology, Rockingham, Vt.). After transfection, cells were harvested and transferred into 24-well culture plates. The transfected cells were cultured for 1 to 2 days before the cAMP accumulation experiments were carried out.
After labeling and intracellular ATP pool with 3.0 μCi/mL of [2,8-^3H]adenine, cells were incubated in DMEM (0.5 mL/well) without phenol red, buffered to pH 7.1 with 20 mM of 4-(2-hydroxyethyl)-1-piperazineethanesulfonic acid (HEPES) for 30 minutes at 37° C.
To determine the effect of the DCUK-OEt or other compounds on the function of the CB1 receptor, the cells were treated with the phosphodiesterase inhibitor, IBMX (500 μM), for 10 minutes at 37° C., followed by the addition of D1A receptor agonist, dopamine (DA) (1 μM), in the presence of a known CB1 agonist or agonist, plus a CB1 antagonist for 5 minutes. The following agonist and antagonist were used: CB1 receptor agonist, ACEA (10 μM); CB1 receptor antagonist, AM251 (10 μM). In additional reactions, the addition of DA was accompanied by addition of DCUK-OEt (10 μM) or DCUK-OEt together with AM251 (10 μM). In a final set of reactions DCUK-OEt was added with ACEA (10 μM), to assess whether DCUK-OEt acted like a CB1 receptor antagonist. The reactions were terminated by adding 50 μL of 100% (w/v) tricholoroacetic acid. ATP and cAMP were separated through Dowex 50 and neutral alumina columns as is known in the art, and quantified by liquid scintillation counting. [α-^32P]ATP and 8-[^14C]cAMP were added as internal standards to monitor the recovery of ATP and cAMP through column chromatography. Conversion of [^3H] ATP into [^3H]cAMP was calculated as follows: [^3H]cAMP (%)=[^3H]cAMP (cpm)/([^3H]ATP (cpm)+[^3H]cAMP (cpm))·100. [^3H]cAMP (%) values obtained from cells which underwent only the 10-minute IBMX incubation period before the addition of trichloroacetic acid, were used as blanks and these values were subtracted from the values obtained from cells which underwent the 1-minute incubation period with DA in the presence or absence of other agonists/antagonists. Each condition was assayed in triplicate and the whole experimental procedure was repeated 4 times. The ratio of cAMP accumulation was calculated for all treatment groups versus DA treatment group (100%) and the values were averaged among the four batches of experiments.

CB1 receptor [2] = biological target: T1, CB1 receptor; test: cAMP accumulation in HEK293 cells transfected with AC7, D1AR, CB1R; type: cell-based; settings: dopamine stimulated cAMP
Experimental: HEK293 cells were obtained from American Type Culture Collection (Manassas, Va.). Cells were cultured in 225 mL flasks containing 39 mL of MEM containing 10% fetal bovine serum, penicillin (50 μg/mL), streptomycin (50 μg/mL), and neomycin (100 μg/mL). The flasks were maintained in a humidified atmosphere of 95% air and 5% CO2 at about 37° C. Transfection was performed by the method of DNA precipitation with calcium phosphate 1 day after HEK 293 cells were transferred to small flasks (75 mL) at the density of approximately 60 to 80% confluence. […] Transfection efficiency was routinely monitored by observing the expression of enhanced green fluorescent protein (GFP) by an epifluorescence microscope equipped with a filter set (excitation, 480/40 nm; emission, 535/50 nm) and a dichroic mirror (T89002bs; Chroma Technology, Rockingham, Vt.). […]
To determine the effect of the DCUK-OEt or other compounds on the function of the CB1 receptor, the cells were treated with the phosphodiesterase inhibitor, IBMX (500 μM), for 10 minutes at 37° C., followed by the addition of D1A receptor agonist, dopamine (DA) (1 μM), in the presence of a known CB1 agonist or agonist, plus a CB1 antagonist for 5 minutes. […] ATP and cAMP were separated through Dowex 50 and neutral alumina columns as is known in the art, and quantified by liquid scintillation counting. […]

T1 sequence (P21554 whole entry): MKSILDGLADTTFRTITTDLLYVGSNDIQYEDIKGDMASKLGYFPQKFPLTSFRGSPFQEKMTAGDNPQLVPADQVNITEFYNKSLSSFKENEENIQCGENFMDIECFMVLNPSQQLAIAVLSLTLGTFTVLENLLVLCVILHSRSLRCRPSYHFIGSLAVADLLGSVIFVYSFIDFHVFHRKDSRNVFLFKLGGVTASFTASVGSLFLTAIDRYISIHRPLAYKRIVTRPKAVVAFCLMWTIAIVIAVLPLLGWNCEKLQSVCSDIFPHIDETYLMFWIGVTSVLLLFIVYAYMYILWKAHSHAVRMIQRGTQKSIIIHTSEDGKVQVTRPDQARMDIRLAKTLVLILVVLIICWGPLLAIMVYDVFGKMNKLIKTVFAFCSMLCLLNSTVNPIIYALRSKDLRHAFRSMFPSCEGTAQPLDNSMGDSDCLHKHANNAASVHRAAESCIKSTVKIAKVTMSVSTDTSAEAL

- effect on DA stimulated cAMP production with AM251 added (CB1 receptor [1]; AM251 10 μM): reversed by AM251
- reversal of the effects of ACEA (CB1 receptor [1]; added with ACEA 10 μM): did not reverse the effects of ACEA
- effect on DA stimulated cAMP production (CB1 receptor [1]; dopamine 1 μM, compound 10 μM): reduced DA stimulated cAMP production
- functional action at CB1 receptor (CB1 receptor [2]): acts like an agonist at the CB1 receptor
SMILES: CCOC(=O)c1cc(NC(=O)N(c2ccccc2)c2ccccc2)c2c(Cl)cc(Cl)cc2n1 [DCUK-OEt, N,N-diphenyl-4-ureido-5,7-dichloro-2-carboxy quinoline ethyl ester]
